Values after ≈ are worked out from the molar mass of the structure shown.
Experiments:
[1] = Inhibition of recombinant FGFR3/BAIAP2L1 (unknown origin) transduced in mouse BaF3 cells incubated for 48 hrs by Cell Titer Glo assay; format: cell-based; details: BaF3, 48 h
[2] = biological target: Fibroblast growth factor receptor 3 (Homo sapiens, UniProt P22607); experiment: Inhibition of wild-type FGFR3 (unknown origin) by mobility shift assay
[3] = biological target: Fibroblast growth factor receptor 3 (Homo sapiens, UniProt P22607, K650E); experiment: Inhibition of FGFR3 K650E mutant (unknown origin) by mobility shift assay
Chain of Fibroblast growth factor receptor 3 (Homo sapiens, UniProt P22607, K650E) (P22607 23-806 K650E limits assumed): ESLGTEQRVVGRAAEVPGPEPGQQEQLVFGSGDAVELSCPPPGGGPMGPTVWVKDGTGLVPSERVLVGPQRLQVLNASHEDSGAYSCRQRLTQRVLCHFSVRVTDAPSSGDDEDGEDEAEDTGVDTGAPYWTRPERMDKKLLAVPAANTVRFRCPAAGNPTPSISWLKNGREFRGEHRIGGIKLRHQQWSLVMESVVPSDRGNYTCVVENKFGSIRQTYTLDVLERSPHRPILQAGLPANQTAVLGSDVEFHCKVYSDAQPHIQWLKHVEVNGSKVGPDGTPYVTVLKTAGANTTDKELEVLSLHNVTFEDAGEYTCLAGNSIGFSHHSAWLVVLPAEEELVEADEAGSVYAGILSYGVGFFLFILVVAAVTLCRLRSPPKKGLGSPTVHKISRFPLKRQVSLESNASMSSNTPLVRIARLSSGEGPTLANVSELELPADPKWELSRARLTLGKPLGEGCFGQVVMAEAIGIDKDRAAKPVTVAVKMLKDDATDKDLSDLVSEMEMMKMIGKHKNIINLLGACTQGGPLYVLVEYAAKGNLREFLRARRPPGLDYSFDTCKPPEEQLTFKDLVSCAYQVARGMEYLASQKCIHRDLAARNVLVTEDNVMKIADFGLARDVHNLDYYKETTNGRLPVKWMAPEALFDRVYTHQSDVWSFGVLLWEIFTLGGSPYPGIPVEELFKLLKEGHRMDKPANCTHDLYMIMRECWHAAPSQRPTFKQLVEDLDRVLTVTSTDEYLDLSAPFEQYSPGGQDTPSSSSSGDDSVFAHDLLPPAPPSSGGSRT

[4] = biological target: Fibroblast growth factor receptor 3 (Homo sapiens, UniProt P22607, V555L); experiment: Inhibition of FGFR3 V555L mutant (unknown origin) by mobility shift assay
Chain of Fibroblast growth factor receptor 3 (Homo sapiens, UniProt P22607, V555L) (P22607 23-806 V555L limits assumed): as the sequence (P22607 23-806 K650E limits assumed) above, with V533L, E628K counted along it

[5] = biological target: Vascular endothelial growth factor receptor 3 (Homo sapiens, UniProt P35916); experiment: Inhibition of human FLT4 by KINOMEscan analysis
[6] = biological target: Tyrosine-protein kinase JAK2 (Homo sapiens, UniProt O60674); experiment: Inhibition of human JAK2 by KINOMEscan analysis
Chain of Tyrosine-protein kinase JAK2 (O60674 whole entry): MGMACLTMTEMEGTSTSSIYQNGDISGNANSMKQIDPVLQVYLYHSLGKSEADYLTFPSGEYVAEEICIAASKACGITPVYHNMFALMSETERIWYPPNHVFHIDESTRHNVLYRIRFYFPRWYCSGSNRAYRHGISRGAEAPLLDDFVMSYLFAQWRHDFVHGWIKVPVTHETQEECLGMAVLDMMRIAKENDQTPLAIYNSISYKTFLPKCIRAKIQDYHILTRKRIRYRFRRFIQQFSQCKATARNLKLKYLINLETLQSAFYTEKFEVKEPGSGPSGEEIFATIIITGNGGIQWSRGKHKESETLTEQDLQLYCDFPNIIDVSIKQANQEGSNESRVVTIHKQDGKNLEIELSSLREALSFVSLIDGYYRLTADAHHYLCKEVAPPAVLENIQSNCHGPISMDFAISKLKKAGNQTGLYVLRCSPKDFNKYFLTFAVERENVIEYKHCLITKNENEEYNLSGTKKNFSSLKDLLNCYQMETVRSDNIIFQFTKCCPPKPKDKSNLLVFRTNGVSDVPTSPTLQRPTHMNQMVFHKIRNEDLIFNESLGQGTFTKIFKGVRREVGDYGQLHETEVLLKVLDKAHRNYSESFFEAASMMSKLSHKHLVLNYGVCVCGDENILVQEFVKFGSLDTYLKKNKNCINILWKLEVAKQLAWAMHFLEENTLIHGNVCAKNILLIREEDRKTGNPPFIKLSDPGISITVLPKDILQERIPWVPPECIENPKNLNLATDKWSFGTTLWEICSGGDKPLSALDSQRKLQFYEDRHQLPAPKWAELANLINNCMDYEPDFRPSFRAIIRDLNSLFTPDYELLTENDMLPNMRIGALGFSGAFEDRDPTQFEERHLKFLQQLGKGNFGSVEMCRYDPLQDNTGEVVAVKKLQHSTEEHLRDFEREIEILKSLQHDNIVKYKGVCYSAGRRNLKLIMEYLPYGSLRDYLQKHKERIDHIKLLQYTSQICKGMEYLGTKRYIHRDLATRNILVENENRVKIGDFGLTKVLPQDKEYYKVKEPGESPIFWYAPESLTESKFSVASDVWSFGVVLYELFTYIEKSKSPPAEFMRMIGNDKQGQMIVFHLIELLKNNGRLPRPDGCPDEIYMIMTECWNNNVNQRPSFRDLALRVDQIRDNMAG

[7] = biological target: Vascular endothelial growth factor receptor 2 (Homo sapiens, UniProt P35968); experiment: Inhibition of human VEGFR2 by KINOMEscan analysis
Chain of Vascular endothelial growth factor receptor 2 (P35968 whole entry, the tested form may be a part): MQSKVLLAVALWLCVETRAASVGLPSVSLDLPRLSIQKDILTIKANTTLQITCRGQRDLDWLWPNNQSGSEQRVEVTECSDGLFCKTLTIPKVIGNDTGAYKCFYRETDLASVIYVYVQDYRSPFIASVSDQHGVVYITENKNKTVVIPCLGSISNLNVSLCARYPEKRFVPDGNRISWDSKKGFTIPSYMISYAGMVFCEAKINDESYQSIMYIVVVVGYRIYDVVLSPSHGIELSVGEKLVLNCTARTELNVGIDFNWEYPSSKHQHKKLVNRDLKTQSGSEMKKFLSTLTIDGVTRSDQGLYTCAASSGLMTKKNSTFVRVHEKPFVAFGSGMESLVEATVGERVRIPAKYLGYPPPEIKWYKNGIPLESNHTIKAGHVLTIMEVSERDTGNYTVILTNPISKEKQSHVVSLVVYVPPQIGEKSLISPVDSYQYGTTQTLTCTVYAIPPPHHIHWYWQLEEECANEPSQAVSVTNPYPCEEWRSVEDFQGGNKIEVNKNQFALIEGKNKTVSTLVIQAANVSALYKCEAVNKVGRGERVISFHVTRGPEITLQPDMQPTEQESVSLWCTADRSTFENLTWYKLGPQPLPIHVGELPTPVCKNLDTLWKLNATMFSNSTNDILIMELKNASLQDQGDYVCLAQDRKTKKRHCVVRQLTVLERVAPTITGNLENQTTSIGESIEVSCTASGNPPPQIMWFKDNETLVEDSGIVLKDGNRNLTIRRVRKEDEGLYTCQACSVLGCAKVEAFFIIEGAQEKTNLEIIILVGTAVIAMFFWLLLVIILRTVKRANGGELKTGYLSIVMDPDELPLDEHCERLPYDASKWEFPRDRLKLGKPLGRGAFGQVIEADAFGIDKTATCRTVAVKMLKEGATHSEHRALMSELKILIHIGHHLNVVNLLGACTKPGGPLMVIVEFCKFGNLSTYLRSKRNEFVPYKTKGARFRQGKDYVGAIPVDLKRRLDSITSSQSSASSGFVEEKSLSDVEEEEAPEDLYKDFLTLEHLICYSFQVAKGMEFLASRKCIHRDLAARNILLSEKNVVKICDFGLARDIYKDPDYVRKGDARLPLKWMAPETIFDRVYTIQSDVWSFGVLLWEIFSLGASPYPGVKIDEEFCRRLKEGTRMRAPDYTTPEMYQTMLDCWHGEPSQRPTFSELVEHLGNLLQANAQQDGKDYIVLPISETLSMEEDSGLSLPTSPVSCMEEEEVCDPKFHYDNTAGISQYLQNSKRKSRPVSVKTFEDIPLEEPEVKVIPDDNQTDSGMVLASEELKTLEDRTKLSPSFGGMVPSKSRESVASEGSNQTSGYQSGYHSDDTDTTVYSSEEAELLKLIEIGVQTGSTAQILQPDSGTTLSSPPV

KG-1 = experiment: Inhibition of cell viability in human KG-1 cells harboring FGFR1-fusion incubated for 72 to 120 hrs by Cell Titer Glo assay; format: functional, cell-based
[8] = Stability in human hepatocytes assessed as intrinsic clearance at 1 uM incubated upto 180 mins by LC-MS/MS analysis; format: ADME, cell-based, Hepatocyte; details: read-out: CLH
[9] = Apparent permeability in MDCK-MDR1 cells; format: ADME, cell-based, Canis lupus familiaris; details: dog
[10] = Thermodynamic solubility in FaSSIF; format: ADME; details: read-out: Therm_solubility
[11] = biological target: Voltage-gated inwardly rectifying potassium channel KCNH2 (Homo sapiens, UniProt Q12809); experiment: Inhibition of hERG expressed in CHO cells by automated patch-clamp assay; format: toxicity, cell-based
Chain of Voltage-gated inwardly rectifying potassium channel KCNH2 (Q12809 whole entry): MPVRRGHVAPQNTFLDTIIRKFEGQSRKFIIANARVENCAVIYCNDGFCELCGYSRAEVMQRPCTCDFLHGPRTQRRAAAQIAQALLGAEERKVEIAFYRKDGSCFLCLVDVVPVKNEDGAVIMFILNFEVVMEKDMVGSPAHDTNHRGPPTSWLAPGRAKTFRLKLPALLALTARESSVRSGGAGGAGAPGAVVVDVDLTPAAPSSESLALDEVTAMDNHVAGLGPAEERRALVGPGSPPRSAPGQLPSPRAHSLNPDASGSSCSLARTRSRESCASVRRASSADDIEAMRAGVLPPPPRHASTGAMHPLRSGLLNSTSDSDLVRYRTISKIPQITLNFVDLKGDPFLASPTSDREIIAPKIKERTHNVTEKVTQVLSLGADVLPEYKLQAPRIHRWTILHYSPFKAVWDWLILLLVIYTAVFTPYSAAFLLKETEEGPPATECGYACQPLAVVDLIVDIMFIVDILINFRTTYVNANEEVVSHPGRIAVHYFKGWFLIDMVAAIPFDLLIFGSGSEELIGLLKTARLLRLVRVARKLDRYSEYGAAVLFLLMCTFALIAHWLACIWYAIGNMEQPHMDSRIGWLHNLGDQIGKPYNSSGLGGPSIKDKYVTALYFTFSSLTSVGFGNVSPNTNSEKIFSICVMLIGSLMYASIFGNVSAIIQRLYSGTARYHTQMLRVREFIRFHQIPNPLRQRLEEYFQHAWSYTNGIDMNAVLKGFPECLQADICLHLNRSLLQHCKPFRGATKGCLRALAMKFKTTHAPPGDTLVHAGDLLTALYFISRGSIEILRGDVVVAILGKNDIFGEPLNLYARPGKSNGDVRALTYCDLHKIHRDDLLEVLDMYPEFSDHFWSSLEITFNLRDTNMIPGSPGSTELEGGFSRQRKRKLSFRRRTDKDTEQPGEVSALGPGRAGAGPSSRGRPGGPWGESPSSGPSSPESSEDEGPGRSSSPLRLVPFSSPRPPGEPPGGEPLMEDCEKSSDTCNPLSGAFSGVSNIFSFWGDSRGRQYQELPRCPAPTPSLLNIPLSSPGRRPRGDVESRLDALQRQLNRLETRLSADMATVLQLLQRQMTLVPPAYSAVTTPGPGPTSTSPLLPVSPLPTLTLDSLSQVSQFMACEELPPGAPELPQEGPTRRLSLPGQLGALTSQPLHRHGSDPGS

[12] = Clearance in Sprague-Dawley rat at 2 mg/kg, iv measured for 24 hrs by LC-MS/MS analysis; format: ADME, organism-based; details: in vivo
[13] = Half life in dog at 1 mg/kg, iv measured for 24 hrs by LC-MS/MS analysis; format: ADME, organism-based, Canis lupus familiaris; details: in vivo
[14] = Clearance in dog at 1 mg/kg, iv measured for 24 hrs by LC-MS/MS analysis; format: ADME, organism-based, Canis lupus familiaris; details: in vivo
[15] = Tmax in monkey at 10 mg/kg, po measured for 24 hrs by LC-MS/MS analysis; format: ADME, organism-based, Macaca mulatta; details: rhesus monkey, in vivo

IC50 [2]: 1.6 nM
IC50 [3]: 2.8 nM
IC50 [4]: 1.5 nM
IC50 [5]: 2.1 nM
IC50 [6]: 36 nM
IC50 [7]: 325 nM
CLint scaled at 1 µM [8]: 14 mL/min/kg
Papp [9]: 1 ×10⁻⁶ cm/s
solubility thermodynamic [10]: 20 µM (≈ 11.2 µg/mL)
clearance [12]: 17.5 mL/min/kg
half-life [13]: 331 min
clearance [14]: 2.68 mL/min/kg
Tmax [15]: 6 h
SMILES: C[C@@H](Oc1ccc2[nH]nc(-c3ccc(N4CC5(C4)CN(S(C)(=O)=O)C5)nc3)c2c1)c1c(Cl)cncc1Cl
IC50 [1]: 11 nM
IC50 (KG-1): 109 nM
IC50 [11]: 9.3 µM
